In patent US20150126546A1, “Treatment of Cognitive Disorders with Certain Alpha-7 Nicotinic Acid Receptors in Combination with Acetylcholinesterase Inhibitors” (Forum Pharmaceuticals, Inc., priority 2009, published 2015):
Structures can show the parent of a compound that is named as a salt.

Assays:
Assay type in all cases: in vivo
[1] = test system: 5-month-old male Wistar rats; experiment: Object recognition task after scopolamine treatment; conditions: for d2 difference from zero (one-sample t-tests) / effect on scopolamine-induced object memory dysfunction (comparison with scopolamine alone): present study; for d2 difference from zero (one-sample t-tests) / effect on scopolamine-induced object memory dysfunction (comparison with scopolamine alone) / Mean values (±SEM) of the indices of discrimination (d2) between the new and familiar objects: EVP-6124 0.03 mg/kg p.o., donepezil 0.1 mg/kg p.o., scopolamine 0.1 mg/kg i.p., 1 h delay; for Mean values (±SEM) of the indices of discrimination (d2) between the new and familiar objects: all 30 min before T1, n = 23
Description: The object recognition task allows the assessment of consolidation of (object) information into memory (Ennaceur and Delacour, 1988; Prickaerts et al., 1997). In this task a rat is given two trials. In the first trial the rat is put into an arena in which two identical objects are placed. Usually, a rate will inspect the two objects for a certain amount of time. After a certain delay, the rat is given a second trial. In this trial the rat is again placed in the same arena but one of the objects has been replaced by a novel object. Similar to the first trial the rat again explores the two objects. The amount of time exploring each object is recorded in order to determine whether the rat spent a different amount of time exploring the two objects. On basis of this scoring the memory performance can be determined.
All drugs were given 30 minutes before the first trial.
All experimental procedures were approved by the local ethical committee of the Maastricht University for animal experiments and met governmental guidelines. Twenty-four 5-month-old male Wistar rats (Harlan, The Netherlands) were used (average body weights: 465 g). […] The animals were individually housed in standard type 3 Makrolon cages on sawdust bedding in an air-conditioned room (about 20° C.). They were kept under a 12/12-hour light/dark cycle (lights on from 19.00 to 7.00 h) and had free access to food and water. Rats were housed in the same room as where the animals were tested. A radio, which was playing softly, provided background noise in the room. All testing was done between 9.00 and maximally 18.00 h.
EVP-6124 was dissolved in H2O. The solution was prepared daily and tested at a dose of 0.03 mg/kg p.o. (injection volume 2 ml/kg). […] Donepezil was dissolved in saline. The solution was prepared daily and tested at a dose of 0.1 mg/kg p.o. (injection volume 2 ml/kg). Administration was always 30 min before trial 1 immediately after (R)-7-chloro-N-(quinuclidin-3-yl)benzo[b]thiophene-2-carboxamide.
Subsequently donepezil, (R)-7-chloro-N-(quinuclidin-3-yl)benzo[b]thiophene-2-carboxamide and the combination of both were tested (n=8 per condition per day of testing). All rats were treated once with each dose condition. […] The experimentator was unaware of the condition/drugs being tested.
The object recognition test was performed as described elsewhere (Ennaceur and Delacour, 1988). The apparatus consisted of a circular arena, 83 cm in diameter. Half of the 40 cm high wall was made of gray polyvinyl chloride, the other half of transparent polyvinyl chloride. The light intensity was equal in the different parts of the apparatus. Two objects were placed in a symmetrical position about 10 cm away from the gray wall. Each object was available in triplicate. The objects were: 1) a cone consisting of a gray polyvinyl chloride base (maximal diameter 18 cm) with a collar on top made of brass (total height 16 cm), 2) a standard 1 l brown transparent glass bottle (diameter 10 cm, height 22 cm) filled with water, 3) a massive metal cube (10.0×5.0×7.5 cm) with two holes (diameter 1.9 cm), and 4) a massive aluminum cube with a tapering top (13.0×8.0×8.0 cm). A rat could not displace the objects. Fluorescent red tubes and a light bulb provided a constant illumination of about 20 lux on the floor of the apparatus.
A testing session comprised two trials. The duration of each trial was 3 min. During the first trial (T1) the apparatus contained two identical objects (samples). A rat was always placed in the apparatus facing the wall at the middle of the front (transparent) segment. After the first exploration period the rat was put back in its home cage.

[2] = test system: 5-month-old male Wistar rats; experiment: as above; conditions: previous study; for effect on object memory deficit induced by scopolamine: scopolamine 0.1 mg/kg i.p.
[3] = test system: mild to moderate AD patients; conditions: 0.3 or 1.0 mg/d for 28 days, in addition to donepezil or rivastigmine; domains of non-verbal learning, memory, executive function
Method: The safety and efficacy of (R)-7-chloro-N-(quinuclidin-3-yl)benzo[b]thiophene-2-carboxamide HCl salt was assessed in a Phase 1b study of 48 mild to moderate AD patients 60-80 years of age, on stable donepezil (5 or 10 mg/day) or rivastigmine (6-12 mg/day administered as a twice daily dose, i.e., 3 or 6 mg per dose).
Patients were dosed with placebo or two different doses of (R)-7-chloro-N-(quinuclidin-3-yl)benzo[b]thiophene-2-carboxamide (0.3 or 1.0 mg/d) for 28 days. Safety was evaluated by adverse events, ECG, and clinical laboratory measures. Cognitive effects were measured by CogState computerized cognitive testing and a subset of NTB scales (category fluency, Trails A and B).

| Compound | d2 difference from zero (one-sample t-tests) [1] | effect on scopolamine-induced object memory dysfunction (comparison with scopolamine alone) [1] | Mean values (±SEM) of the indices of discrimination (d2) between the new and familiar objects [1] | effect on scopolamine-induced object memory deficit ([2]; 0.1 mg/kg donepezil) | effect on scopolamine-induced object memory deficit ([2]; 0.3 mg/kg donepezil p.o.) | cognitive function [3] | effect on object memory deficit induced by scopolamine ([2]; 0.03 mg/kg p.o.) | effect on object memory deficit induced by scopolamine ([2]; 0.3 mg/kg p.o.) | memory of the familiar object after 1 h delay interval ([1]; scopolamine 0.1 mg/kg i.p. alone) |
| --- | --- | --- | --- | --- | --- | --- | --- | --- | --- |
| COc1cc2c(cc1OC)C(=O)C(CC1CCN(Cc3ccccc3)CC1)C2 (centres unmarked) [donepezil, 1-benyzl-4-[(5,6-dimethoxy-1-indanon)-2-yl]methylpiperidine monohydrochloride] | not different from zero | did not improve the memory | −0.02 (0.05) | had no effect | attenuated |  |  |  |  |
| O=C(N[C@H]1CN2CCC1CC2)c1cc2cccc(Cl)c2s1 [EVP-6124, (R)-7-chloro-N-(quinuclidin-3-yl)benzo[b]thiophene-2-carboxamide] | not different from zero | did not improve the memory | 0.00 (0.05) |  |  | showed an increase in cognitive function | had no effect | completely attenuated |  |
| CN1[C@@H]2C[C@@H](OC(=O)[C@H](CO)c3ccccc3)C[C@H]1[C@@H]1O[C@@H]12 [scopolamine] | no difference |  | 0.02 (0.07) |  |  |  |  |  | no more memory of the familiar object was found |
